# Biological target: WT-CXCL12 (Homo sapiens, UniProt P48061)
# Assay: 2D 1H-15N SOFAST-HMQC NMR titration, binding to WT-CXCL12
# Conditions: 2D 1H-15N SOFAST-HMQC screen of docking hits
row,Structure (SMILES),binding to WT-CXCL12 (chemical shift perturbations)
1,O=C(O)CC1c2ccccc2CCN1C(=O)Nc1cccc(F)c1 (stereo not shown) [compound 7],induced chemical shift perturbations to residues associated with the I4/I6 binding site
2,O=C(O)CCn1cc(C(=O)c2ccccc2O)cc1-c1ccncc1 [compound 4],bind non-specifically
3,CC(C)O.CCCOc1ccc(C(Nc2ccc(F)cc2)P(=O)(O)O)cc1 (stereo not shown) [compound 6],induced chemical shift perturbations to residues associated with the I4/I6 binding site
4,COc1ccc(C2C(C(=O)O)CC(=O)N2Cc2ccsc2)cc1 (stereo not shown) [compound 5],bind non-specifically

# Reference: publication PMC5600900 (Journal of medicinal chemistry, 2016)
